pEC50: −log10 of the molar value. Bridge positions count the residues as written; N and C are the ends. Square brackets hold non-standard residues; d marks the D form. Peptide text beside a SMILES is read from it. R8 = C=CCCCCCC[C@@](C)(N)C(=O)O; S5 = C=CCCC[C@](C)(N)C(=O)O
Key:
[1] = Circular dichroism (CD) analysis of alpha-helicity; assay type: physicochemical; settings: for Molar Ellipticity TFE − Molar Ellipticity Benign / Molar Ellipticity 50% TFE (222 in 50% TFE) / Molar Ellipticity Benign (222 in 0% TFE): 222 nm; for Molar Ellipticity 50% TFE (222 in 50% TFE): CD buffer with 50% TFE; for Molar Ellipticity 50% TFE (222 in 50% TFE) / Molar Ellipticity Benign (222 in 0% TFE): 0.05 mg/ml, 4° C.; for Molar Ellipticity Benign (222 in 0% TFE): benign CD buffer (20 mM phosphoric acid, pH 2); for % Helix benign compared to 50% TFE parent (CD): benign buffer
Description: Peptide solutions were analyzed by CD spectroscopy using a Jasco J-815 spectropolarimeter (Jasco Inc., Easton, Md.) with the Jasco Spectra Manager Ver. 2 system software. A Peltier temperature controller was used to maintain temperature control of the optical cell. Results are expressed as mean molar ellipticity (deg cm^2 dmol^−1) as calculated from the equation [0]=θobs·MRW/10*l*c where θobs is the observed ellipticity in millidegrees, MRW is the mean residue weight of the peptide (peptide molecular weight/number of residues), 1 is the optical path length of the cell in centimeters, and c is the peptide concentration in mg/ml. Peptide concentrations were determined by amino acid analysis. Stock solutions of peptides were prepared in benign CD buffer (20 mM phosphoric acid, pH 2). The stocks were used to prepare peptide solutions of 0.05 mg/ml in either benign CD buffer or CD buffer with 50% trifluoroethanol (TFE) for analyses in a 10 mm pathlength cell. Variable wavelength measurements of peptide solutions were scanned at 4° C. from 195 to 250 nm, in 0.2 nm increments, and a scan rate 50 nm per minute. The average of six scans was reported.

Caspase 3 = Caspase 3 detection assay in SJSA1 cells; assay type: cell-based; settings: SJSA1, 48 h, Caspase 3 activation over DMSO-treated cells
SJSA-1 cells = experiment: Cell lysis by peptidomimetic macrocycles (LDH release); assay type: cell-based; settings: SJSA-1, 1 h
Outline: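 Membrane lysis measured as supernatant LDH after a 1 h, 37 °C exposure of SJSA-1 cells, held in RPMI with 1% FBS, to macrocycles at final 6.25-50 μM with 0.5% DMSO. Lytic references were 10 μM melittin and 1% Triton X-100; DMSO alone served as non-lytic control.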

RKO = experiment: Cell viability assay (MTT), RKO; settings: read-out: RKO EC50 (72 h)

## CC(=O)N[C@@H](CC(C)C)C(=O)N[C@H](C(=O)N[C@@H](Cc1ccccc1)C(=O)N[C@]1(C)CCCCCCC=CCCC[C@@](C)(C(=O)N[C@@H](CO)C(=O)N[C@@H](C)C(=O)N[C@@H](C)C(N)=O)NC(=O)[C@H](CC(C)C)NC(=O)[C@H](CCC(N)=O)NC(=O)[C@H](C)NC(=O)[C@H](Cc2c[nH]c3ccccc23)NC(=O)[C@H](Cc2ccc(O)cc2)NC(=O)[C@H](C)NC1=O)[C@@H](C)O [compound 11] (Ac-LTF[R8]AYWAQL[S5]SAA-NH2; staple 4-11)
[1]
  % Helix 50% TFE compared to 50% TFE parent (CD): 106.1%
  Molar Ellipticity TFE − Molar Ellipticity Benign: 16225.2 deg cm^2 dmol^−1
  Molar Ellipticity 50% TFE (222 in 50% TFE): −16623.4 deg cm^2 dmol^−1
  Molar Ellipticity Benign (222 in 0% TFE): −398.2 deg cm^2 dmol^−1
  % Helix benign compared to 50% TFE parent (CD): 2.5%
Caspase 3
  caspase 0.3 μM: 1
  caspase 3 μM: 5
  caspase 10 μM: 23
  caspase 30 μM: 33.5
SJSA-1 cells
  6.25 μM % Lysed cells (1 h LDH): −2%
  25 μM % Lysed cells (1 h LDH): 2%
  50 μM % Lysed cells (1 h LDH): 3%
RKO
  pEC50: > 5.30

## CC(=O)N[C@@H](CC(C)C)C(=O)N[C@H](C(=O)N[C@@H](Cc1ccccc1)C(=O)N[C@]1(C)CCCCCCC=CCCC[C@@](C)(C(=O)N[C@@H](C)C(=O)N[C@@H](C)C(=O)N[C@@H](C)C(=O)N[C@@H](C)C(=O)N[C@H](C)C(N)=O)NC(=O)[C@H](CC(C)C)NC(=O)[C@H](CCC(N)=O)NC(=O)[C@H](C)NC(=O)[C@H](Cc2c[nH]c3ccccc23)NC(=O)[C@H](Cc2ccc(O)cc2)NC(=O)[C@H](C)NC1=O)[C@@H](C)O [compound 233]
[1]
  % Helix 50% TFE compared to 50% TFE parent (CD): 131.2%
  Molar Ellipticity TFE − Molar Ellipticity Benign: −18554.7 deg cm^2 dmol^−1
  Molar Ellipticity 50% TFE (222 in 50% TFE): −19032.6 deg cm^2 dmol^−1
  Molar Ellipticity Benign (222 in 0% TFE): −477.9 deg cm^2 dmol^−1
  % Helix benign compared to 50% TFE parent (CD): 3.3%
Caspase 3
  caspase 0.3 μM: 6
  caspase 3 μM: 17
  caspase 10 μM: 22
  caspase 30 μM: 23
Caspase 3; 1 μM
  caspase 1 μM: 8
SJSA-1 cells
  6.25 μM % Lysed cells (1 h LDH): 2.5%
  25 μM % Lysed cells (1 h LDH): 3.5%
  50 μM % Lysed cells (1 h LDH): 6%

## CC(=O)N[C@@H](CC(C)C)C(=O)N[C@H](C(=O)N[C@@H](Cc1ccccc1)C(=O)N[C@]1(C)CCCCCCC=CCCC[C@@](C)(C(=O)N[C@@H](C)C(=O)N[C@@H](C)C(=O)N[C@@H](C)C(=O)N[C@H](C)C(N)=O)NC(=O)[C@H](CC(C)C)NC(=O)[C@H](CCC(N)=O)NC(=O)[C@H](C)NC(=O)[C@H](Cc2c[nH]c3ccccc23)NC(=O)[C@H](Cc2ccc(O)cc2)NC(=O)[C@H](C)NC1=O)[C@@H](C)O (single isomer, unassigned) [compound 230]
[1]
  % Helix 50% TFE compared to 50% TFE parent (CD): 123.9%
  Molar Ellipticity TFE − Molar Ellipticity Benign: −17760.8 deg cm^2 dmol^−1
  Molar Ellipticity 50% TFE (222 in 50% TFE): −17974 deg cm^2 dmol^−1
  Molar Ellipticity Benign (222 in 0% TFE): −213.2 deg cm^2 dmol^−1
  % Helix benign compared to 50% TFE parent (CD): 1.5%
Caspase 3
  caspase 0.3 μM: 1
  caspase 3 μM: 2
  caspase 10 μM: 3
  caspase 30 μM: 11
SJSA-1 cells
  6.25 μM % Lysed cells (1 h LDH): 0.5%
  25 μM % Lysed cells (1 h LDH): 0%
  50 μM % Lysed cells (1 h LDH): 3%
